Tests used:
Leishmaniabraziliensis = test: Skin ulceration of Leishmania-infected hamsters; assay type: in vivo, hamsters (Mesocricetus auratus); conditions: 200 μg/mL subcutaneous injection at ulcer site 100 μL/mouse/d
Description: 2) Research on the treatment with micro- and nano-MgH2 compound particles: • 2.1 MgH2 compound particles with a particle diameter of 100 nm to 1,000 nm were first dissolved in a phosphoric acid buffer to prepare 5 concentration groups (1 mg/100 uL, 3 mg/100 uL, 5 mg/100 uL, 10 mg/100 uL, and 15 mg/100 uL). • 2.2 A Leishmaniabraziliensis-infected mouse model was established, which was specified as follows:
Various hamsters (Mesocricetus auratus) were selected, the lower dorsal margin was shaved, and Leishmania (1 million/100 uL/mouse) was injected subcutaneously at 2 cm of an upper margin of a tail. […] MgH2 compound particles (with a particle size of 100 nm to 1,000 nm) at different concentrations (100 uL) were smeared to a skin lesion of an infected hamster once every 24 h continuously for 14 d. An untreated group (namely, a blank control group, infected mice were not treated) and an antimony preparation subcutaneous injection group (sodium antimony gluconate (5-valent antimony preparation, 200 μg/mL) was injected subcutaneously at an ulcer site 100 μL/mouse/d) were set.

Leishmania = test: Cure time of skin/mucosal ulcer and impaired organ function caused by Leishmania; conditions: in vivo
[1] = existing studies; cited from earlier work

Which “Healing rate of a skin ulceration wound” value (Leishmaniabraziliensis; day 0) does the source give for “sodium antimony gluconate [Antimony preparation]” here?
Its value is 0%.

And the “Healing rate of a skin ulceration wound” value (Leishmaniabraziliensis; day 3)?
Its value is 15.3 ± 2.0%.

And the “Healing rate of a skin ulceration wound” value (Leishmaniabraziliensis; day 7)?
The value was 75.2 ± 4.8%.

And the “Healing rate of a skin ulceration wound” value (Leishmaniabraziliensis; day 14)?
Its value is 88.9 ± 5.1%.

What about the cure time (Leishmania) of the same substance?
The cure time was 1 to 3 months.

And the side effects [1]?
Its side effects is “serious liver and kidney function damage”.
